The target in one assay is T1, ADRA1A (Homo sapiens, UniProt P35348).
T1 sequence (P35348 1-466): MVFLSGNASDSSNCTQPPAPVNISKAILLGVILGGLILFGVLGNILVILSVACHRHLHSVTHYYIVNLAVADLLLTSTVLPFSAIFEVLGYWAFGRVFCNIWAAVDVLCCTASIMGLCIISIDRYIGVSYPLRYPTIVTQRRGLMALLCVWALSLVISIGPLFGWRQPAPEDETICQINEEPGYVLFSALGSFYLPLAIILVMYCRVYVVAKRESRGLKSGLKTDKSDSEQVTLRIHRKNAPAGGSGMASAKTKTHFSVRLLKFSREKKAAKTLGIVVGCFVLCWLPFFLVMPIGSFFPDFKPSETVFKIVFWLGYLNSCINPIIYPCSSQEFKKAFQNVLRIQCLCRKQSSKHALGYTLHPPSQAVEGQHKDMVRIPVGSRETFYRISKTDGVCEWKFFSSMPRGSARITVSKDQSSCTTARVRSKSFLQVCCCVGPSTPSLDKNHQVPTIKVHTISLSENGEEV
The experiment in a line: cell-based. To be noted: ADRA1A, GPCR, ANT (antagonist); read-out: IC50.

In assay [1] the target is T2, CHRM1 (Homo sapiens, UniProt P11229).
T2 sequence (P11229 1-460): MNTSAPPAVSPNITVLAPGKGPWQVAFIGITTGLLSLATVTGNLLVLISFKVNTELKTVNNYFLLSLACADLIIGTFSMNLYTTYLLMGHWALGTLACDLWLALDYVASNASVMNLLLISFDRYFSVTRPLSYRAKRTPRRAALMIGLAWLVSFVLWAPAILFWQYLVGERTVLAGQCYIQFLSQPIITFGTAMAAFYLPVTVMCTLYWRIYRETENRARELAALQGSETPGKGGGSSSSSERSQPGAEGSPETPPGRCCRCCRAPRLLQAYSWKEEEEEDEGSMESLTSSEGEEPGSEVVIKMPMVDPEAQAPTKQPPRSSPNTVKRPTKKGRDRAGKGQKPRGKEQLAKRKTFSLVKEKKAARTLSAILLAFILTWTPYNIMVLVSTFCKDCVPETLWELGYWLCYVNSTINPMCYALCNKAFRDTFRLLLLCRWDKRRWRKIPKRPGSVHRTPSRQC
The experiment in a line: cell-based. Conditions: CHRM1, GPCR, AGN (agonist); read-out: EC50.

The target of assay [2] is T2, CHRM1. The experiment in a line: cell-based. Conditions: CHRM1, GPCR, ANT (antagonist); read-out: IC50.
A further assay has as its target CNR1 (Homo sapiens, UniProt P21554). The experiment in a line: cell-based.
The target in the next assay is DRD1 (Homo sapiens, UniProt P21728). Briefly: cell-based. To be noted: DRD1, GPCR, ANT (antagonist); read-out: IC50.
The target in another assay is DRD2S (Homo sapiens, UniProt P14416). The experiment in a line: cell-based. Conditions: DRD2S, GPCR, ANT (antagonist); read-out: IC50.
For assay [3], the target named is T3, HTR1B (5-HTR1B) (Homo sapiens, UniProt P28222). Briefly: cell-based. To be noted: HTR1B, GPCR, AGN (agonist); read-out: EC50.
For assay [4], the target named is T3, HTR1B (5-HTR1B). Briefly: cell-based. To be noted: HTR1B, GPCR, ANT (antagonist); read-out: IC50.
The target of the next assay is HTR2A (Homo sapiens, UniProt P28223). The experiment in a line: cell-based. To be noted: HTR2A, GPCR, ANT (antagonist); read-out: IC50.
The target of a further assay is HTR2B (5-HT2B) (Homo sapiens, UniProt P41595). Briefly: cell-based. Conditions: HTR2B, GPCR, ANT (antagonist); read-out: IC50.
For assay [5], the target named is T4, OPRD1 (Homo sapiens, UniProt P41143). Briefly: cell-based.
In assay [6] the target is T4, OPRD1. The experiment in a line: cell-based. Conditions: OPRD1, GPCR, ANT (antagonist); read-out: IC50.
The target of another assay is T5, HTR3A (5-HT3A) (Homo sapiens, UniProt P46098).
T5 sequence (P46098 24-478): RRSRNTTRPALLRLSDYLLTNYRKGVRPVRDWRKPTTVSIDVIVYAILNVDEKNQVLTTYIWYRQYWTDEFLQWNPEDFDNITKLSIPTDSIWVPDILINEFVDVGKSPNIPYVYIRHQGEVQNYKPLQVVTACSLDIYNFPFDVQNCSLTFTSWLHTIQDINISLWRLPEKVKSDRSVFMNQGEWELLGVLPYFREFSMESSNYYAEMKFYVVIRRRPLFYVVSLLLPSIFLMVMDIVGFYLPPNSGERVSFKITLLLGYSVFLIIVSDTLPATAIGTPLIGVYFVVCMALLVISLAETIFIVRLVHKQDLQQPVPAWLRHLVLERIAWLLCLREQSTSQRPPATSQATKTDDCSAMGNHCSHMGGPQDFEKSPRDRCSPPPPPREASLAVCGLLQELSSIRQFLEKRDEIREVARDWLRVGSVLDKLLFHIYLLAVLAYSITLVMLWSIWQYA
Briefly: cell-based. To be noted: HTR3A, ion channel, BL (blocker); read-out: IC50.

A further assay addresses DAT (Homo sapiens, UniProt Q01959). Briefly: cell-based. To be noted: DAT, transporter, BL (blocker); read-out: IC50.
The target in a further assay is NET (Homo sapiens, UniProt P23975). Briefly: cell-based. Conditions: NET, transporter, BL (blocker); read-out: IC50.
A further assay concerns the target SERT (Homo sapiens, UniProt P31645). Briefly: cell-based. Conditions: SERT, transporter, BL (blocker); read-out: IC50.
For the next assay, the target named is NMDAR (Homo sapiens, UniProt Q05586+Q13224). Briefly: cell-based. Conditions: NMDAR, ion channel, OP (opener); read-out: EC50.
The next assay concerns the target T6, 5-HT1A receptor (Homo sapiens, UniProt P08908).
T6 construct: host or cells: CHO-K1
T6 sequence (P08908 1-422): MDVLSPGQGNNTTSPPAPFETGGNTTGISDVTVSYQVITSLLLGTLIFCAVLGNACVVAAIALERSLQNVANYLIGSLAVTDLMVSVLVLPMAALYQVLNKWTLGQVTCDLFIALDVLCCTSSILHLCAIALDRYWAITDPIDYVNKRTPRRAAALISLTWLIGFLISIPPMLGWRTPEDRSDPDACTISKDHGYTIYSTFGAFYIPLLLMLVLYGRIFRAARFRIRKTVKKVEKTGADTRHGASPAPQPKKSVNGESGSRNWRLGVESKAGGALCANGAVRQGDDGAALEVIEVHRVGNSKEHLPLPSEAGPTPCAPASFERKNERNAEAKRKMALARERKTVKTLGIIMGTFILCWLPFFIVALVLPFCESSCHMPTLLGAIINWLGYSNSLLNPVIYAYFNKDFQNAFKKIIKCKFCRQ
In kind it is cell-based. Conditions: comparison of +5-HT1A with -5-HT1A cultures, 4 mM forskolin.

Like-named read-outs stand apart in the source and are kept apart here. A value given as a limit tells only on which side of the number the result lay.

T4 sequence (P41143 whole entry): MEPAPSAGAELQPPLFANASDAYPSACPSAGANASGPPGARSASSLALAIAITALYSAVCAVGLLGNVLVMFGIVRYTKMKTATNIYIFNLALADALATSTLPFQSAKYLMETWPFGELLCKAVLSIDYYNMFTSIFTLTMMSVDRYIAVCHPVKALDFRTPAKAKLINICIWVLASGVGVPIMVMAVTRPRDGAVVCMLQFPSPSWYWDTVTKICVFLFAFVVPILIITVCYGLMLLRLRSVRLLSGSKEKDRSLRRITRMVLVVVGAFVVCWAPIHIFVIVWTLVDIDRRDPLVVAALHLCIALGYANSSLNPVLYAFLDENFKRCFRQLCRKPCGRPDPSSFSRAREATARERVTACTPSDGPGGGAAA
T3 sequence (P28222 whole entry): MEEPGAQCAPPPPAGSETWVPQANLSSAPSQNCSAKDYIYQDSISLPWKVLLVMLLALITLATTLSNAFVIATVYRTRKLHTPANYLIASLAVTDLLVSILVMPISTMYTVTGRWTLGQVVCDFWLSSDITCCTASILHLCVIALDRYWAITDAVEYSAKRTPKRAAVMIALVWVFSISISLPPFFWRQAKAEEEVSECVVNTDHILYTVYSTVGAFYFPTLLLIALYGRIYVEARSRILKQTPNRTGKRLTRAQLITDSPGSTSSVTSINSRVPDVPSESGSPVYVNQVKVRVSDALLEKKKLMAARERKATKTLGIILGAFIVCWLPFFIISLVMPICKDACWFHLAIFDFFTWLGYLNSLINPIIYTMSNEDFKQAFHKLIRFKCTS
CNR1, sequence (P21554 whole entry): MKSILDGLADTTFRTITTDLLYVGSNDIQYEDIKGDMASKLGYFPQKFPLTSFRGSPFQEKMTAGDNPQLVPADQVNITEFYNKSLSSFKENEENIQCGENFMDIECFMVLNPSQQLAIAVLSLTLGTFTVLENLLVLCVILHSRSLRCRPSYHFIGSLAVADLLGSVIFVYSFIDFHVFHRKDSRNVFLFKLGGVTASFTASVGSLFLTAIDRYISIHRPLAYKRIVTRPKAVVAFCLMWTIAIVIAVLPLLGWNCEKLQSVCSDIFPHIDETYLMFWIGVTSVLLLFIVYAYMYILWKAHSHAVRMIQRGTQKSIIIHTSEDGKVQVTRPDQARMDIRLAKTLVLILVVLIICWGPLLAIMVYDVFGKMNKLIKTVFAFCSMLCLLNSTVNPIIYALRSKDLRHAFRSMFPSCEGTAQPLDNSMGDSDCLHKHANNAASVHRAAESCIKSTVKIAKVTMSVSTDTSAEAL
NET, sequence (P23975 whole entry): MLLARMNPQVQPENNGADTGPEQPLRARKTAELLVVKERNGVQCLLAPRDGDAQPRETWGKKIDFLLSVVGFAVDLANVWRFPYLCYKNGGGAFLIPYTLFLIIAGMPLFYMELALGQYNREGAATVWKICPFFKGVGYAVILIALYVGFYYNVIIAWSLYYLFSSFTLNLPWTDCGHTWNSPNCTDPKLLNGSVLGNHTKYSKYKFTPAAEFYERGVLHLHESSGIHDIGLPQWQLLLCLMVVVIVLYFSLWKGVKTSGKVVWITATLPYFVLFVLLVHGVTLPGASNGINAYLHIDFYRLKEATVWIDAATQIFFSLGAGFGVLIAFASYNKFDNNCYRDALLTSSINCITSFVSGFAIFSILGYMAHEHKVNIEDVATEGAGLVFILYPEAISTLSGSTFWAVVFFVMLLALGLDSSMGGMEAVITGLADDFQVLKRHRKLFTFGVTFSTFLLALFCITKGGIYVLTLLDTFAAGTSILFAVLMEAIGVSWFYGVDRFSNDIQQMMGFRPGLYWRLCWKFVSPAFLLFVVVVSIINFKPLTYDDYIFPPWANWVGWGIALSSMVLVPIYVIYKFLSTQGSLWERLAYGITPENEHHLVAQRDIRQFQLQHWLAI
HTR2A, sequence (P28223 whole entry): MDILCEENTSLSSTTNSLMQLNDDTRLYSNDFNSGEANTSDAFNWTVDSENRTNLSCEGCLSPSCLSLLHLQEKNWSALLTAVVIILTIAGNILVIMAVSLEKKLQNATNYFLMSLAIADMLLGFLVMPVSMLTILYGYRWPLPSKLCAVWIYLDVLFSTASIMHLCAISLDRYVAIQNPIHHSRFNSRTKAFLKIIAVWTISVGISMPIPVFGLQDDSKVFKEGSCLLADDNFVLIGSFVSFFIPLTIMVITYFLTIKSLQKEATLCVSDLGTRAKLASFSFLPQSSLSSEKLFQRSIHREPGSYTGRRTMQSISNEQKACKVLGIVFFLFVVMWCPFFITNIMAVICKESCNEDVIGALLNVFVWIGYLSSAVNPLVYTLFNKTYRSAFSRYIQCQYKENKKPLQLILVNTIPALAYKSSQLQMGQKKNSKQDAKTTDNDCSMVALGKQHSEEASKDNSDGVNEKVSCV
NMDAR, sequence (Q13224 27-1484, other chains not shown): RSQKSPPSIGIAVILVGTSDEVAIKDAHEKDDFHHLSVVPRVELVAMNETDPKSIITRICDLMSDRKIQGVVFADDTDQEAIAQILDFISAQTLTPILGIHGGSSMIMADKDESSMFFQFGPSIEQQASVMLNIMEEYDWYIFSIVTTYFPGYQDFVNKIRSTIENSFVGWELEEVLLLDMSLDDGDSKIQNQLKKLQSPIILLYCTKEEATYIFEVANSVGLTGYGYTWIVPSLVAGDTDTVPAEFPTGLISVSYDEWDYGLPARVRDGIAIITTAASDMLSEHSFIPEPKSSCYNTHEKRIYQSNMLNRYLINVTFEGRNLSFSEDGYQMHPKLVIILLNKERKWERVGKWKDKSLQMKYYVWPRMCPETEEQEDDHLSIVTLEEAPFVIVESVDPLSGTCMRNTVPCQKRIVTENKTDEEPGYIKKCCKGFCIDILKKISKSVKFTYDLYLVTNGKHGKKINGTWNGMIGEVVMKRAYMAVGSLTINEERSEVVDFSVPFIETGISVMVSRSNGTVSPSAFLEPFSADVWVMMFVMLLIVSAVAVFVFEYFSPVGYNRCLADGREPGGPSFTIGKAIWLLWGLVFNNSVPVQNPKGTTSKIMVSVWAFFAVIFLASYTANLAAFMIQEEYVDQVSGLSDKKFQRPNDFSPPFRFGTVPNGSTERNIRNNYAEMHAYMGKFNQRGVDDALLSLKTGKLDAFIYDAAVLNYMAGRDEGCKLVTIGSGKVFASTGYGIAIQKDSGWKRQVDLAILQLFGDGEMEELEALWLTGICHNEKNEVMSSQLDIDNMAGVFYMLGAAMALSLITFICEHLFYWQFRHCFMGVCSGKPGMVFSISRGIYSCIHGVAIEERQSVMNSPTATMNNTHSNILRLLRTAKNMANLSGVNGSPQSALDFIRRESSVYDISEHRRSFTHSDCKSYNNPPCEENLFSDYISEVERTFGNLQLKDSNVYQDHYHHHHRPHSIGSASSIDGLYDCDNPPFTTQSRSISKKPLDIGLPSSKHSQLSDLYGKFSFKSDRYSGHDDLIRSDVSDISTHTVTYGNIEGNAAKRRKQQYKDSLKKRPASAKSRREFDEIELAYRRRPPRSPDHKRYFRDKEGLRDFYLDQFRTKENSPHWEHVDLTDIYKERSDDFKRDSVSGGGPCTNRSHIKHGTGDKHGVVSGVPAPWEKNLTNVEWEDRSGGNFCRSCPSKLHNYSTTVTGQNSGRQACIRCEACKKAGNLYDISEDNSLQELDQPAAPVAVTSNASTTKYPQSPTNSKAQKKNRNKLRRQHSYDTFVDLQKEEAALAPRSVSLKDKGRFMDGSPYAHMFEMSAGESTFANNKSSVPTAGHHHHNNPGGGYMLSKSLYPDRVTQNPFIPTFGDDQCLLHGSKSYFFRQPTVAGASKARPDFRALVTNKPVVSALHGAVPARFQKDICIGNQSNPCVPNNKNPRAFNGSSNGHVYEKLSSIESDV
DRD1, sequence (P21728 whole entry): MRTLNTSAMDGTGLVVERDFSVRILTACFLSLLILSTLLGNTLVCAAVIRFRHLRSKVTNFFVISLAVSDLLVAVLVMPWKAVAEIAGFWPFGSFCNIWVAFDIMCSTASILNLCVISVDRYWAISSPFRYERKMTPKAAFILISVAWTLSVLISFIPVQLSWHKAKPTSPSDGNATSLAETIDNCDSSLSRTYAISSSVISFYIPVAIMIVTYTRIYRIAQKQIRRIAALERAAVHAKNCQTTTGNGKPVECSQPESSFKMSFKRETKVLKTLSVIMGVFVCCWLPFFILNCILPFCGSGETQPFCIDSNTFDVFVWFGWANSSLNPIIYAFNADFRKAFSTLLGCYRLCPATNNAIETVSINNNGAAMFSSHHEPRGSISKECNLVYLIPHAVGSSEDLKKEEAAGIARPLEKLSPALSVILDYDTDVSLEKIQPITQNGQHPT
DRD2S, sequence (P14416 1-414 isoform P14416-2): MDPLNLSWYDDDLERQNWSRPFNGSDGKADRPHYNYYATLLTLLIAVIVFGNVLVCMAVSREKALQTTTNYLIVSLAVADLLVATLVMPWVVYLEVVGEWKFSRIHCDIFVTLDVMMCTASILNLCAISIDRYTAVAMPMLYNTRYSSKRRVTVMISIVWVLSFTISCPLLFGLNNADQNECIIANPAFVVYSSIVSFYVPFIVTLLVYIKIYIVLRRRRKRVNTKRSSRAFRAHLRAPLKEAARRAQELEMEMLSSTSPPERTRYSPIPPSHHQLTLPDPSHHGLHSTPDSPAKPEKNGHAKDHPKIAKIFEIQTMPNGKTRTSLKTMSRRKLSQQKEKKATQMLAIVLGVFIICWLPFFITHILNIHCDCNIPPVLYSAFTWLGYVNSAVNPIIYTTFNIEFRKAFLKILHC

Consider `CC(C)OC(=O)OCOc1cccc2c1c(CCN(C)C)cn2COC(=O)OC(C)C` [D(XIII)], for which the IC50 on ADRA1A, at CHRM1 [2], against CNR1, at DRD1, on DRD2S and at HTR1B (5-HTR1B) [4] was > 100 µM in each case. Also, the IC50 is 16.3 µM on HTR2A; 5.14 µM on HTR2B (5-HT2B); > 100 µM at OPRD1 [6]; 16.7 µM on HTR3A (5-HT3A); > 100 µM on DAT; > 100 µM on NET. For the same compound, the IC50 at SERT is > 100 µM. Moreover, the EC50 at CHRM1 [1] is > 100 µM; on HTR1B (5-HTR1B) [3], 9.32 µM; on OPRD1 [5], > 100 µM; on NMDAR it was > 100 µM. The 5-HT1A receptor modulation result at 5-HT1A receptor is on record as “suggests receptor modulation at higher ligand concentrations”.

In the case of `CCCCC(=O)OCOc1cccc2[nH]cc(CCN(C)C)c12` [D(III)], the IC50 was 3.86 µM at ADRA1A; 52.6 µM on CHRM1 [2]; > 100 µM at CNR1 (CNR1, GPCR, ANT (antagonist), read-out: IC50); 32.2 µM on DRD1; > 100 µM at DRD2S; > 100 µM at HTR1B (5-HTR1B) [4]. For the same compound, the IC50 was 0.587 µM at HTR2A; 0.301 µM at HTR2B (5-HT2B); > 100 µM on OPRD1 [6]; 32.4 µM on HTR3A (5-HT3A); > 100 µM at DAT; > 100 µM on NET. For the same compound, the IC50 at SERT is > 100 µM. The EC50 on CHRM1 [1] is > 100 µM; on HTR1B (5-HTR1B) [3], 0.279 µM; at OPRD1 [5] (OPRD1, GPCR, AGN (agonist), read-out: EC50) it was > 100 µM; on NMDAR, > 100 µM. Further, the 5-HT1A receptor modulation result at 5-HT1A receptor was “suggests no receptor modulation”.

Source of the values: patent US20250352512A2, “C4-S[…] DERIVATIVES AND METHODS OF USING” (priority 2022, published 2025).
